Patent publication US20220324865A1 (Bayer Aktiengesellschaft, priority 2018, published 2022)
Where a name gives a salt, the structure may show the parent alone.

What follows are compounds tested against T1, human EP3 receptor (Homo sapiens, UniProt P43115) (assay: Cellular in vitro assay for determining EP3 receptor activity (human EP3 cell line, sulprostone-stimulated calcium luminescence)). Details: CHO cells expressing human EP3 and mitochondrial Clytin; antagonist mode, sulprostone at EC50; read-out: EP3 CHO mtCLY ANTAG IC50.
T1 construct: expressed in transfected cells; host or cells: CHO K1 (Chinese Hamster Ovary), stably co-transfected with Galpha16 and mitochondrial clytin
T1 sequence (P43115 1-390): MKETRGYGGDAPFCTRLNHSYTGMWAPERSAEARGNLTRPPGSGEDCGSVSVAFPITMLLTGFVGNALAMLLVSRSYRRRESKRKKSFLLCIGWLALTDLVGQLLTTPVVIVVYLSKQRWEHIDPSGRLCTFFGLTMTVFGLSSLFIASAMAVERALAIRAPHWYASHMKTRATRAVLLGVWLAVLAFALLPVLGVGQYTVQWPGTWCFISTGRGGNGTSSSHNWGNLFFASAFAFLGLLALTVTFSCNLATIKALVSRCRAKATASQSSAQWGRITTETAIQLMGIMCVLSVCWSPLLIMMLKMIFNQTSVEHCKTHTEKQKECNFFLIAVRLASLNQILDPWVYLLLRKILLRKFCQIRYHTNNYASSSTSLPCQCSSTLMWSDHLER
Type: cell-based
Summary of the method: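 CHO K1 cells stably expressing human EP3 with Gα16 and mitochondrial Clytin, loaded overnight with coelenterazine. Compounds added 10 min before sulprostone at its EC50; antagonism read immediately as reduced calcium-driven luminescence, quadruplicate points.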

| Structure (SMILES) | IC50 [nM] |
| --- | --- |
| COCc1c(C(=O)N[C@H](CCO)c2ccc(F)cc2)nn2cc(-c3ccc4ccccc4c3)[nH]c(=O)c12 [Example 1-55, N-[(1R)-1-(4-Fluorophenyl)-3-hydroxopyl]-3-(methoxymethyl)-6-(naphthalen-2-yl)-4-oxo-4,5-dihydropyrazolo[1,5-a]pyrazine-2-carboxamide] | 0.488 |
| Cc1cccc2ncc(-c3cn4nc(C(=O)N[C@H](CCO)c5ccc(F)cc5)c(C(C)C)c4c(=O)[nH]3)cc12 [Example 1-56, N-[(1R)-1-(4-Fluorophenyl)-3-hydroxypropyl]-6-(5-methylquinolin-3-yl)-4-oxo-3-(propan-2-yl)-4,5-dihydropyrazolo[1,5-a]pyrazine-2-carboxamide] | 0.985 |
| COc1ccc(C2(NC(=O)c3cc4c(=O)[nH]c(-c5ccc6ccccc6c5)cn4n3)CN(C(=O)OC(C)(C)C)C2)cc1 [Example 1-57, tert.-Butyl 3-(4-methoxyphenyl)-3-({[6-(naphthalen-2-yl)-4-oxo-4,5-dihydropyrazolo[1,5-a]pyrazin-2-yl]carbonyl}amino)azetidine-1-carboxylate] | 4.9 |
| Cc1ccc(-c2cn3nc(C(=O)N[C@H](CCO)c4ccc(F)cc4)c(C#N)c3c(=O)[nH]2)cc1C [Example 1-58, 3-Cyano-6-(3,4-dimethylphenyl)-N-[(1R)-1-(4-fluorophenyl)-3-hydroxpropyl]-4-oxo-4,5-dihydropyrazolo[1,5-a]pyrazine-2-carboxamide] | 1.5 |
| COc1ccc(C2(NC(=O)c3cc4c(=O)[nH]c(-c5ccc6ccccc6c5)cn4n3)CN(C)C2)cc1 [Example 1-59, N-[3-(4-Methoxyphenyl)-1-methylazetidin-3-yl]-6-(naphthalen-2-yl)-4-oxo-4,5-dihydropyrazolo-[1,5-a]pyrazine-2-carboxamide formic acid salt] | 5.9 |
| COC[C@@H](NC(=O)c1nn2cc(-c3ccc4ccccc4c3)[nH]c(=O)c2c1C#N)c1ccccc1 [Example 1-60, 3-Cyano-N-[(1S)-2-methoxy-1-phenylethyl]-6-(naphthalen-2-yl)-4-oxo-4,5-dihydropyrazolo[1,5-a]-pyrazine-2-carboxamide] | 2.7 |
| O=C(NC(CO)c1ccc(F)cc1)c1cc2c(=O)[nH]c(-c3ccc4ccccc4c3)cn2n1 (stereo not drawn) [Example 1-61, N-[1-(4-Fluorophenyl)-2-hydroxyethyl]-6-(2-naphthyl)-4-oxo-5H-pyrazolo[1 ,5-a]pyrazine-2-carboxamide] | 4.2 |
| O=C(NC(CCO)c1ccc(F)cc1)c1cc2c(=O)[nH]c(-c3ccc4cccnc4c3)cn2n1 (stereo not drawn) [Example 1-62, N-[1-(4-Fluorophenyl)-3-hydroxpropyl]-4-oxo-6-(7-quinolyl)-5H-pyrazolo[1,5-a]pyrazine-2-carboxamide] | 3.6 |
| Cc1ccc(-c2cn3nc(C(=O)N[C@H](CCO)c4ccc(F)cc4)c(Cl)c3c(=O)[nH]2)cc1C [Example 1-63, 3-Chloro-6-(3,4-dimethylphenyl)-N-[(1R)-1-(4-fluorophenyl)-3-hydroxypropyl]-4-oxo-4,5-dihydropyrazolo[1,5-a]pyrazine-2-carboxamide] | 0.443 |
| COc1ccc(C2(NC(=O)c3cc4c(=O)[nH]c(-c5ccc(C)c(C)c5)cn4n3)CN(C(=O)OC(C)(C)C)C2)cc1 [Example 1-64, tert.-Butyl 3-({[6-(3,4-dimethylphenyl)-4-oxo-4,5-dihydropyrazolo[1,5-a]pyrazin-2-yl]carbonyl}-amino)-3-(4-methoxyphenyl)azetidine-1-carboxylate] | 4.55 |
| COC(=O)N1CC(NC(=O)c2cc3c(=O)[nH]c(-c4ccc(C)c(C)c4)cn3n2)(c2ccc(OC)cc2)C1 [Example 1-66, Methyl 3-({[6-(3,4-dimethylphenyl)-4-oxo-4,5-dihydropyrazolo[1,5-a]pyrazin-2-yl]carbonyl}amino)-3-(4-methoxyphenyl)azetidine-1-carboxylate] | 1.65 |
| Cc1ccc(-c2cn3nc(C(=O)N[C@@H](c4ccc(F)cc4)C(C)(C)O)c(C(F)(F)F)c3c(=O)[nH]2)cc1C [Example 1-67, 6-(3,4-Dimethylphenyl)-N-[(1S)-1-(4-fluorophenyl)-2-hydroxy-2-methylpropyl]-4-oxo-3-(trifluoro-methyl)-4,5-dihydropyrazolo[1,5-a]pyrazine-2-carboxamide] | 0.905 |
| CCn1nccc1CNC(=O)c1nn2c(C)c(-c3ccc4ccccc4c3)[nH]c(=O)c2c1C [Example 1-68, N-[(1-Ethyl-1H-pyrazol-5-yl)methyl]-3,7-dimethyl-6-(naphthalen-2-yl)-4-oxo-4,5-dihydropyrazolo-[1,5-a]pyrazine-2-carboxamide] | 1.42 |

Other lines, results leading:

| IC50 [nM] | Structure (SMILES) |
| --- | --- |
| 2.25 | O=C(N[C@@H](CCO)c1ccc(F)cc1)c1cc2c(=O)[nH]c(-c3ccc4ccccc4c3)cn2n1 [Example 1-69, N-[(1S)-1-(4-Fluorophenyl)-3-hydroxypropyl]-6-(naphthalen-2-yl)-4-oxo-4,5-dihydropyrazolo-[1,5-a]pyrazine-2-carboxamide] |
| 3.15 | Cc1ccc(-c2cn3nc(C(=O)N[C@@H](CCO)c4ccc(F)cc4)cc3c(=O)[nH]2)cc1C [Example 1-70, 6-(3,4-Dimethylphenyl)-N-[(1S)-1-(4-fluorophenyl)-3-hydroxpropyl]-4-oxo-4,5-dihydropyrazolo-[1,5-a]pyrazine-2-carboxamide] |
| 1.45 | N#Cc1c(C(=O)N[C@H](CCO)c2ccc(F)cc2)nn2cc(-c3ccc4ccccc4c3)[nH]c(=O)c12 [Example 1-71, 3-Cyano-N-[(1R)-1-(4-fluorophenyl)-3-hydroxypropyl]-6-(naphthalen-2-yl)-4-oxo-4,5-dihydropyrazolo[1,5-a]pyrazine-2-carboxamide] |
| 6.55 | N#Cc1c(C(=O)N[C@@H](CCO)c2ccc(F)cc2)nn2cc(-c3ccc4ccccc4c3)[nH]c(=O)c12 [Example 1-72, 3-Cyano-N-[(1S)-1-(4-fluorophenyl)-3-hydroxpropyl]-6-(naphthalen-2-yl)-4-oxo-4,5-dihydropyrazolo[1,5-a]pyrazine-2-carboxamide] |
| 1.3 | Cc1ccc(-c2cn3nc(C(=O)N[C@H](C)c4ccc(F)cc4)c(C#N)c3c(=O)[nH]2)cc1C [Example 1-73, 3-Cyano-6-(3,4-dimethylphenyl)-N-[(1R)-1-(4-fluorophenyl)ethyl]-4-oxo-4,5-dihydropyrazolo-[1,5-a]pyrazine-2-carboxamide] |
| 0.92 | COC[C@@H](NC(=O)c1nn2cc(-c3ccc(C)c(C)c3)[nH]c(=O)c2c1C#N)c1ccccc1 [Example 1-74, 3-Cyano-6-(3,4-dimethylphenyl)-N-[(1S)-2-methoxy-1-phenylethyl]-4-oxo-4,5-dihydropyrazolo-[1,5-a]pyrazine-2-carboxamide] |
| 8.75 | Cc1ccc(-c2cn3nc(C(=O)N[C@@H](CCO)c4ccc(F)cc4)c(C#N)c3c(=O)[nH]2)cc1C [Example 1-75, 3-Cyano-6-(3,4-dimethylphenyl)-N-[(1S)-1-(4-fluorophenyl)-3-hydroxpropyl]-4-oxo-4,5-dihydropyrazolo[1,5-a]pyrazine-2-carboxamide] |
| 0.725 | COCc1c(C(=O)N[C@H](CCO)c2ccccc2)nn2cc(-c3ccc4ccccc4c3)[nH]c(=O)c12 [Example 1-76, N-[(1R)-3-Hydroxy-1-phenylpropyl]-3-(methoxymethyl)-6-(naphthalen-2-yl)-4-oxo-4,5-dihydropyrazolo[1,5-a]pyrazine-2-carboxamide] |
